Experimental data as given in patent US6562859B1, “Ureido derivatives of poly-4-amino-2-carboxy-1-methyl pyrrole compounds for inhibition of inflammation” (The United States of America as represented by the …, priority 1997, dated 2003).

B1: RANTES: β-chemokine used as chemoattractant stimulus (protein, UniProt P13501 24-91, looked up)
C-C motif chemokine 5: SPYSSDTTPCCFAYIARPLPRAHIKEYFYTSGKCSNPAVVFVTRKNRQVCANPEKKWVREYINSLEMS

Key:
[1] = molecular target: T1, CXCR4 chemokine receptor (Homo sapiens, UniProt P61073); assay: Competition with 44716.111 mAb binding to CXCR4 on human monocytes (FACS); details: human monocytes pre-incubated 15 min at 4° C. with 125 nM SDF-1α or 200 μM NSC 651016
T1 construct: Human monocytes, which express the CXCR4 chemokine receptor; endogenous in cells; host or cells: human monocytes
Method: Competition assays were performed with the 44716.111 mouse monoclonal antibody (mAb), which binds to the extracellular domain of the CXCR4 chemokine receptor. Human monocytes, which express the CXCR4 chemokine receptor, were pre-incubated with either 125 nM of SDF-1α or 200 μM NSC 651016 for 15 min at 4° C. Control monocyte cells were placed at 4° C. for 15 min. The cells were then incubated with the 44716.111 mAb for an additional 30 min. The presence of the 44716.111 mAb was detected by incubating the cells with FITC-conjugated anti-murine antibody and subjecting the cells to FACS Analysis.

[2] = system: Murine spleen cells; assay: Chemotaxis of non-adherent murine spleen cells in vitro; assay type: cell-based; details: 10 ng/ml RANTES alone; media alone = 1
Method: Murine spleen cells were “panned” on plastic to remove the adherent cells. The recovered cells were incubated for 30 minutes at 37° C. with one of the following: NSC 651015, NSC 651016, NSC 662162, and NSC 680651. […] In assays similarly performed using either the MIP-1α or the SDF-1α chemokine rather than RANTES, chemotactic inhibition was also observed in the presence of formula I compounds.

T1 sequence (P61073 whole entry): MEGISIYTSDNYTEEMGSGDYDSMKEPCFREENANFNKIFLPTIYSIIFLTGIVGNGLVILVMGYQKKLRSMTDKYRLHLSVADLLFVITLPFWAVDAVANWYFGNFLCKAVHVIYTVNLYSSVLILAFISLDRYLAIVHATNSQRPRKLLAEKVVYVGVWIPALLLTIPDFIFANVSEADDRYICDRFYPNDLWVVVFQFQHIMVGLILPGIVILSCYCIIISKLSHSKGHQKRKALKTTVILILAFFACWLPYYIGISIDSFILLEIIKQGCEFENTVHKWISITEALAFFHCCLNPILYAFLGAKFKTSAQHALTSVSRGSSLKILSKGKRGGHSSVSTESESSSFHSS

| Molecule | 44716.111 antibody binding to the CXCR4 receptor [1] | chemotactic index [2] |
| --- | --- | --- |
| SDF-1α | decrease in 44716.111 antibody binding | – |
| B1 | – | 2.3 |
